pIC50: −log10 of the molar value. Calls of active or inactive are those of the source. The rule behind the calls is not given here.
Tests used:
[1] = (§1) Cytotoxicity against human NCI-H2122 cells under anchorage-independent condition assessed as cell growth inhibition after 10 days by nitro blue tetrazolium-based microscopic analysis; type: functional; details: NCI-H2122, 240 h
[2] = Drug uptake in lungs of mouse xenografted with human NCI-H2122 cells at 50 mg/kg, ip after 3 hrs by LC-MS/MS analysis; type: ADME, organism-based; details: lung, read-out: Drug uptake
[3] = Drug uptake in heart of mouse xenografted with human NCI-H2122 cells at 50 mg/kg, ip after 3 hrs by LC-MS/MS analysis; type: ADME, organism-based; details: read-out: Drug uptake
[4] = Drug uptake in kidney of mouse xenografted with human NCI-H2122 cells at 50 mg/kg, ip after 3 hrs by LC-MS/MS analysis; type: ADME, organism-based; details: read-out: Drug uptake
[5] = Drug uptake in tumor of mouse xenografted with human NCI-H2122 cells at 50 mg/kg, ip after 3 hrs by LC-MS/MS analysis; type: ADME, organism-based, Neoplasm; details: read-out: Drug uptake
[6] = biological target: T1, Ras-related protein Ral-A (Homo sapiens) (UniProt P11233); assay: Inhibition of RalA activity in human H2122 spheroids after 4 hrs by RalBP1 pull down assay
T1 sequence (whole entry): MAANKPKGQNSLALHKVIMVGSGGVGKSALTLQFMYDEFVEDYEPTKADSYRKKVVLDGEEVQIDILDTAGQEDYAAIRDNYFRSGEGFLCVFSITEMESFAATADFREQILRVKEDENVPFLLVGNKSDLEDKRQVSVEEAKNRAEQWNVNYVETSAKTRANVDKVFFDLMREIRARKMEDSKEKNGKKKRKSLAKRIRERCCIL

[7] = Drug uptake in liver of mouse xenografted with human NCI-H2122 cells at 50 mg/kg, ip after 3 hrs by LC-MS/MS analysis; type: ADME, organism-based; details: read-out: Drug uptake
[8] = Half life in ip dosed mouse plasma; type: ADME, organism-based
[9] = Drug uptake in brain of mouse xenografted with human NCI-H2122 cells at 50 mg/kg, ip after 3 hrs by LC-MS/MS analysis; type: ADME, organism-based; details: read-out: Drug uptake
NCI-H2122 = assay: as §1; type: functional
[10] = Plasma concentration in mouse xenografted with human NCI-H2122 cells at 50 mg/kg, ip after 3 hrs by LC-MS/MS analysis; type: ADME, organism-based
[11] = biological target: T2, Ras-related protein Ral-B (Homo sapiens) (UniProt P11234); assay: Inhibition of RalB activity in human H2122 spheroids after 4 hrs by RalBP1 pull down assay
T2 sequence (whole entry): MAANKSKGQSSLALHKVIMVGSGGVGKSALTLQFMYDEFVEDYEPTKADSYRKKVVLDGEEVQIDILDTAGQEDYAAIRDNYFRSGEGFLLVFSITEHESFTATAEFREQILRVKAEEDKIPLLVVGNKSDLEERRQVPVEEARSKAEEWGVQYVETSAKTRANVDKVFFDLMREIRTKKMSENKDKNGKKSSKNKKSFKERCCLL

[12] = Drug metabolism in mouse xenografted with human NCI-H2122 cells assessed as M6 metabolite formation in tumor at 50 mg/kg, ip after 3 hrs by LC-MS/MS analysis; type: ADME, organism-based, Neoplasm; details: in vivo
[13] = Drug metabolism in mouse xenografted with human NCI-H2122 cells assessed as M7 metabolite formation in brain at 50 mg/kg, ip after 3 hrs by LC-MS/MS analysis; type: ADME, organism-based; details: in vivo
[14] = Drug metabolism in mouse xenografted with human NCI-H2122 cells assessed as M7 metabolite formation in heart at 50 mg/kg, ip after 3 hrs by LC-MS/MS analysis; type: ADME, organism-based; details: in vivo
[15] = Drug metabolism in mouse xenografted with human NCI-H2122 cells assessed as M7 metabolite formation in plasma at 50 mg/kg, ip after 3 hrs by LC-MS/MS analysis; type: ADME, organism-based; details: in vivo
[16] = Drug metabolism in mouse xenografted with human NCI-H2122 cells assessed as M6 metabolite formation in plasma at 50 mg/kg, ip after 3 hrs by LC-MS/MS analysis; type: ADME, organism-based; details: in vivo
[17] = Drug metabolism in mouse xenografted with human NCI-H2122 cells assessed as M7 metabolite formation in lungs at 50 mg/kg, ip after 3 hrs by LC-MS/MS analysis; type: ADME, organism-based, Lung; details: in vivo
[18] = Drug metabolism in mouse xenografted with human NCI-H2122 cells assessed as M7 metabolite formation in kidney at 50 mg/kg, ip after 3 hrs by LC-MS/MS analysis; type: ADME, organism-based; details: in vivo
[19] = Drug metabolism in mouse xenografted with human NCI-H2122 cells assessed as M7 metabolite formation in liver at 50 mg/kg, ip after 3 hrs by LC-MS/MS analysis; type: ADME, organism-based; details: in vivo
[20] = Drug metabolism in mouse xenografted with human NCI-H2122 cells assessed as M6 metabolite formation in lungs at 50 mg/kg, ip after 3 hrs by LC-MS/MS analysis; type: ADME, organism-based, Lung; details: in vivo
[21] = Drug metabolism in mouse xenografted with human NCI-H2122 cells assessed as M6 metabolite formation in liver at 50 mg/kg, ip after 3 hrs by LC-MS/MS analysis; type: ADME, organism-based; details: in vivo
[22] = Drug metabolism in CD1 mouse liver microsomes assessed as CYP450-mediated M6 metabolite formation at 16.7 uM up to 60 mins in presence of NADPH by LC-MS/MS analysis; type: ADME; details: 1 h
[23] = Drug metabolism in mouse xenografted with human NCI-H2122 cells assessed as M6 metabolite formation in kidney at 50 mg/kg, ip after 3 hrs by LC-MS/MS analysis; type: ADME, organism-based; details: in vivo
[24] = Drug metabolism in CD1 mouse liver microsomes assessed as CYP450-mediated M7 metabolite formation at 16.7 uM up to 60 mins in presence of NADPH by LC-MS/MS analysis; type: ADME; details: 1 h
[25] = Drug metabolism in mouse xenografted with human NCI-H2122 cells assessed as M7 metabolite formation in tumor at 50 mg/kg, ip after 3 hrs by LC-MS/MS analysis; type: ADME, organism-based, Neoplasm; details: in vivo
[26] = Drug metabolism in mouse xenografted with human NCI-H2122 cells assessed as M6 metabolite formation in heart at 50 mg/kg, ip after 3 hrs by LC-MS/MS analysis; type: ADME, organism-based; details: in vivo

**Q.** With `Cc1nn(C)c2c1C(c1ccccc1)C(C#N)=C(N)O2` (centres undefined) as the molecule, how does the pIC50 [1] read?
**A.** 5.04

**Q.** With `Cc1nn(C)c2c1C(c1ccc(C#N)cc1)C(C#N)=C(N)O2` (centres undefined) as the molecule, how does the pIC50 [1] read?
**A.** 5.25

**Q.** With `COc1ccc(-c2nn(-c3ccccc3)c3c2C(c2ccc(OC)cc2)C(C#N)=C(N)O3)cc1` (centres undefined) as the molecule, how does the pIC50 [1] read?
**A.** 5.96

**Q.** With `COc1ccc(-c2nn(C)c3c2C(c2ccccc2)C(C#N)=C(N)O3)cc1` (centres undefined) as the molecule, how does the pIC50 [1] read?
**A.** < 5.00

**Q.** For `Cn1nc(-c2ccccc2)c2c1OC(N)=C(C#N)C2c1ccc(-n2ccnc2)cc1` (centres undefined), which concentration at 3 h [2] is on record?
**A.** 1090 ng/g

**Q.** What about the concentration at 3 h [3] of the same molecule?
**A.** 930 ng/g

**Q.** And the concentration at 3 h [4]?
**A.** 630 ng/g

**Q.** What about the concentration at 3 h [5] of the same molecule?
**A.** 380 ng/g

**Q.** And the inhibition [6]?
**A.** Dose-dependent effect

**Q.** And the concentration at 3 h [7]?
**A.** 980 ng/g

**Q.** And the half-life [8]?
**A.** < 1.5 h

**Q.** What about the concentration at 3 h [9] of the same molecule?
**A.** 170 ng/g

**Q.** And the “growth inhibition (GI)” value (NCI-H2122)?
**A.** Active

**Q.** And the concentration at 3 h [10]?
**A.** 490 ng/mL

**Q.** What about the inhibition [11] of the same molecule?
**A.** Dose-dependent effect

**Q.** With `Cc1nn(C)c2c1C(c1ccc(-n3ccnc3)cc1)C(C#N)=C(N)O2` (centres undefined) as the molecule, how does the pIC50 [1] read?
**A.** 5.77

**Q.** With `Cc1nn(C)c2c1C(c1ccc(OC(F)(F)F)cc1)C(C#N)=C(N)O2` (centres undefined) as the molecule, how does the pIC50 [1] read?
**A.** 5.54

**Q.** With `COc1ccc(-c2nn(-c3ccccc3)c3c2C(c2ccc(F)cc2)C(C#N)=C(N)O3)cc1OC` (centres undefined) as the molecule, how does the pIC50 [1] read?
**A.** 5.12

**Q.** With `Cn1nc(-c2ccccc2)c2c1OC(N)=C(C#N)C2c1ccc2c(c1)OCCO2` (centres undefined) as the molecule, how does the pIC50 [1] read?
**A.** 5.08

**Q.** What does the source list for `Cc1nn(C)c2c1C(c1ccc(C(F)(F)F)cc1)C(C#N)=C(N)O2` (centres undefined)?
**A.** concentration at 3 h [2]: 1870 ng/g; concentration at 3 h [3]: 2080 ng/g; concentration at 3 h [4]: 2400 ng/g; concentration at 3 h [5]: 1220 ng/g; inhibition [6]: Dose-dependent effect; concentration at 3 h [7]: 4070 ng/g; half-life [8]: < 1.5 h; concentration at 3 h [9]: 1390 ng/g; pIC50 [1]: 5.66; concentration at 3 h [10]: 5640 ng/mL; inhibition [11]: Dose-dependent effect

**Q.** With `Cc1nn(C)c2c1C(c1cccc(Br)n1)C(C#N)=C(N)O2` (centres undefined) as the molecule, how does the pIC50 [1] read?
**A.** 5.62

**Q.** With `CC(C)c1ccc(C2C(C#N)=C(N)Oc3c2c(-c2ccccc2)nn3C)cc1` (centres undefined) as the molecule, how does the pIC50 [1] read?
**A.** 5.27

**Q.** With `COc1ccc(C2C(C#N)=C(N)Oc3c2c(-c2ccccc2)nn3C)cc1` (centres undefined) as the molecule, how does the pIC50 [1] read?
**A.** < 5.00

**Q.** With `COc1cc(OC)c(C2C(C#N)=C(N)Oc3c2c(C)nn3C)c(OC)c1` (centres undefined) as the molecule, how does the pIC50 [1] read?
**A.** 5.80

**Q.** With `COc1ccc(-c2nn(-c3ccccc3)c3c2C(c2ccccc2)C(C#N)=C(N)O3)cc1` (centres undefined) as the molecule, how does the pIC50 [1] read?
**A.** 5.14

**Q.** With `COc1ccc(C2C(C#N)=C(N)Oc3c2c(-c2ccccc2)nn3-c2ccccc2)cc1` (centres undefined) as the molecule, how does the pIC50 [1] read?
**A.** 5.51

**Q.** With `COc1ccc(-c2nn(C)c3c2C(c2ccc(F)cc2)C(C#N)=C(N)O3)cc1` (centres undefined) as the molecule, how does the pIC50 [1] read?
**A.** < 5.00

**Q.** With `Cn1nc(-c2ccccc2)c2c1OC(N)=C(C#N)C2c1ccc(C(F)(F)F)cc1` (centres undefined) as the molecule, how does the pIC50 [1] read?
**A.** 5.39

**Q.** With `COc1ccc(-c2nn(C)c3c2C(c2ccc(F)cc2)C(C#N)=C(N)O3)cc1OC` (centres undefined) as the molecule, how does the pIC50 [1] read?
**A.** < 5.00

**Q.** With `COc1ccc(C2C(C#N)=C(N)Oc3c2c(C)nn3-c2ccccc2)cc1` (centres undefined) as the molecule, how does the pIC50 [1] read?
**A.** 5.39

**Q.** With `Cn1nc(-c2ccccc2)c2c1OC(N)=C(C#N)C2c1cccc(Br)n1` (centres undefined) as the molecule, how does the pIC50 [1] read?
**A.** 5.77

**Q.** What does the source list for `CCCCC(=O)C1c2ccccc2NC2=C(C(=O)CCC2)C1c1ccccc1Cl` (centres undefined)?
**A.** Drug metabolism [12]: 145.5 ng/g; Drug metabolism [13]: 17 ng/g; Drug metabolism [14]: 472.6 ng/g; concentration at 3 h [2]: 3180 ng/g; Drug metabolism [15]: 656.2 ng/mL; concentration at 3 h [3]: 3540 ng/g; concentration at 3 h [4]: 5730 ng/g; concentration at 3 h [5]: 4170 ng/g; Drug metabolism [16]: 147.5 ng/mL; Drug metabolism [17]: 487.4 ng/g; concentration at 3 h [7]: 11500 ng/g; Drug metabolism [18]: 839.9 ng/g; Drug metabolism [19]: 2822.9 ng/g; Drug metabolism [20]: 47.7 ng/g; concentration at 3 h [9]: 210 ng/g; Drug metabolism [21]: 2531.5 ng/g; Drug metabolism [22]: Metabolite_Detected; Drug metabolism [23]: 350.6 ng/g; Drug metabolism [24]: Metabolite_Detected; Drug metabolism [25]: 413 ng/g; Drug metabolism [26]: 52.8 ng/g; concentration at 3 h [10]: 3950 ng/mL

**Q.** With `Cc1nn(C)c2c1C(c1ccncc1)C(C#N)=C(N)O2` (centres undefined) as the molecule, how does the pIC50 [1] read?
**A.** 5.39

Reference: ChEMBL document CHEMBL3870328, “Synthesis of novel Ral inhibitors: An in vitro and in vivo study” (Bioorg Med Chem Lett, 2016)
